Experimental data from the NIST ThermoML archive (doi:10.1021/je060107n).
± gives the expanded uncertainty stated by the source.

Test: mn = molality of the nth substance listed, in mol/kg
Settings: 101 kPa, Liquid; for speed of sound: Linear variable-path acoustic interferometer; for mass density: Pycnometric method; for viscosity: Capillary tube (Ostwald / Ubbelohde) method

O=[N+]([O-])[O-].O=[N+]([O-])[O-].[Mg+2] [magnesium nitrate] + O
Settings	mass density [kg/m3]	speed of sound [m/s]	viscosity [mPa·s]
293.15 K, m1 = 2.131	–	1656.3 ± 2	–
293.15 K, m1 = 2.493	–	1682.1 ± 2	–
293.15 K, m1 = 2.793	–	1705.3 ± 2	–
293.15 K, m1 = 3.118	–	1728.1 ± 2	–
293.15 K, m1 = 3.17	–	1736.5 ± 2	–
293.15 K, m1 = 3.501	–	1755.4 ± 2	–
293.15 K, m1 = 3.757	–	1771.3 ± 2	–
293.15 K, m1 = 4.051	–	1787.5 ± 2	–
293.15 K, m1 = 4.285	–	1802.4 ± 2.1	–
293.15 K, m1 = 4.403	–	1809.3 ± 2.1	–
293.15 K, m1 = 4.883	–	1838.8 ± 2.1	–
295.75 K, m1 = 0.3405	1032.9 ± 0.6	–	–
296 K, m1 = 5.134	1404.4 ± 1	–	–
297.5 K, m1 = 3.501	1299.9 ± 1.1	–	–
297.65 K, m1 = 0.5931	1057.4 ± 0.6	–	–
297.85 K, m1 = 4.285	1350.5 ± 0.8	–	–
297.9 K, m1 = 3.17	1281.3 ± 1.2	–	–
298.1 K, m1 = 2.493	1225.2 ± 0.8	–	–
298.15 K, m1 = 0.0145	–	1498.3 ± 1.9	0.9075 ± 0.012
298.15 K, m1 = 0.0528	–	1500.5 ± 1.9	0.9227 ± 0.012
298.15 K, m1 = 0.2491	–	1514.9 ± 1.9	0.9713 ± 0.013
298.15 K, m1 = 0.3405	–	1519 ± 1.9	–
298.15 K, m1 = 0.5931	–	–	1.079 ± 0.014
298.15 K, m1 = 0.6173	–	1540.9 ± 1.9	–
298.15 K, m1 = 0.896	–	1563 ± 1.9	–
298.15 K, m1 = 0.9898	–	1570.8 ± 1.9	1.232 ± 0.016
298.15 K, m1 = 1.262	–	1590 ± 1.9	1.366 ± 0.018
298.15 K, m1 = 1.525	–	1611.1 ± 1.9	–
298.15 K, m1 = 1.827	–	1637.3 ± 1.9	1.662 ± 0.022
298.15 K, m1 = 2.131	–	1660.5 ± 2	1.842 ± 0.024
298.15 K, m1 = 2.493	–	1685.3 ± 2	–
298.15 K, m1 = 2.584	–	–	2.206 ± 0.029
298.15 K, m1 = 2.793	–	1706.5 ± 2	–
298.15 K, m1 = 3.096	–	–	2.665 ± 0.035
298.15 K, m1 = 3.118	–	1728.8 ± 2	–
298.15 K, m1 = 3.17	–	1736.6 ± 2	–
298.15 K, m1 = 3.329	–	–	2.921 ± 0.039
298.15 K, m1 = 3.501	–	1754.6 ± 2	–
298.15 K, m1 = 3.704	–	–	3.367 ± 0.045
298.15 K, m1 = 3.757	–	1774.2 ± 2	–
298.15 K, m1 = 4.039	–	–	3.889 ± 0.052
298.15 K, m1 = 4.051	–	1786.2 ± 2	–
298.15 K, m1 = 4.285	–	1800.3 ± 2.1	–
298.15 K, m1 = 4.403	–	1806.6 ± 2.1	–
298.15 K, m1 = 4.728	–	–	5.349 ± 0.071
298.15 K, m1 = 4.883	–	1831.8 ± 2.1	–
298.15 K, m1 = 4.907	–	–	5.933 ± 0.079
298.15 K, m1 = 5.134	–	1855.2 ± 2.1	–
298.15 K, m1 = 5.282	–	–	7.034 ± 0.093
298.2 K, m1 = 5.134	1402.9 ± 1	–	–
298.5 K, m1 = 4.051	1333.6 ± 0.8	–	–
299.15 K, m1 = 0.0145	998.05 ± 0.63	–	–
299.35 K, m1 = 0.0528	1002.2 ± 0.7	–	–
299.6 K, m1 = 0.3405	1031.8 ± 0.6	–	–
299.75 K, m1 = 2.131	1196.1 ± 0.8	–	–
299.8 K, m1 = 3.501	1298.5 ± 0.9	–	–
299.95 K, m1 = 4.728	1377.8 ± 0.8	–	–
300.1 K, m1 = 3.17	1280 ± 0.9	–	–
300.15 K, m1 = 4.883	1384.4 ± 0.9	–	–
300.3 K, m1 = 4.285	1349 ± 0.9	–	–
300.35 K, m1 = 2.493	1223.9 ± 0.8	–	–
300.5 K, m1 = 0.9898	1095.4 ± 0.8	–	–
300.5 K, m1 = 5.134	1401.4 ± 1	–	–
300.75 K, m1 = 2.584	1232 ± 0.8	–	–
300.75 K, m1 = 4.039	1332.1 ± 0.9	–	–
300.85 K, m1 = 4.051	1332.2 ± 0.9	–	–
300.9 K, m1 = 0.896	1085.9 ± 0.7	–	–
300.95 K, m1 = 0.5931	1056.2 ± 0.7	–	–
300.95 K, m1 = 1.262	1119.4 ± 0.7	–	–
300.95 K, m1 = 2.793	1247.4 ± 0.8	–	–
301 K, m1 = 4.97	1390.1 ± 1	–	–
301.05 K, m1 = 3.704	1311.3 ± 0.9	–	–
301.1 K, m1 = 1.525	1142.4 ± 0.7	–	–
301.25 K, m1 = 4.403	1355.4 ± 0.8	–	–
301.6 K, m1 = 0.2491	1022.3 ± 0.7	–	–
302.1 K, m1 = 3.096	1269.1 ± 0.9	–	–
302.1 K, m1 = 3.501	1297.2 ± 0.9	–	–
302.25 K, m1 = 2.131	1194.8 ± 0.8	–	–
302.25 K, m1 = 3.17	1278.7 ± 1.5	–	–
302.3 K, m1 = 4.728	1376.3 ± 1	–	–
302.4 K, m1 = 4.285	1347.6 ± 0.9	–	–
302.55 K, m1 = 0.3405	1030.8 ± 0.9	–	–
302.55 K, m1 = 2.493	1222.7 ± 0.8	–	–
302.6 K, m1 = 1.827	1169.5 ± 0.8	–	–
302.6 K, m1 = 4.883	1382.9 ± 0.9	–	–
302.95 K, m1 = 4.039	1330.8 ± 0.9	–	–
302.95 K, m1 = 5.134	1399.9 ± 1	–	–
303.05 K, m1 = 0.0145	996.95 ± 0.64	–	–
303.1 K, m1 = 1.694	1156.4 ± 0.7	–	–
303.1 K, m1 = 2.584	1230.7 ± 0.8	–	–
303.1 K, m1 = 2.793	1246.1 ± 0.9	–	–
303.15 K, m1 = 0.0145	–	1509.5 ± 1.9	0.8115 ± 0.011
303.15 K, m1 = 0.0528	–	1511.9 ± 1.9	0.825 ± 0.011
303.15 K, m1 = 0.2491	–	1526.5 ± 1.9	0.8716 ± 0.012
303.15 K, m1 = 0.3405	–	1529.9 ± 1.9	–
303.15 K, m1 = 0.5931	–	–	0.9679 ± 0.013
303.15 K, m1 = 0.6173	–	1550.7 ± 1.9	–
303.15 K, m1 = 0.896	–	1571.2 ± 1.9	–
303.15 K, m1 = 0.9898	–	1578.7 ± 1.9	1.112 ± 0.015
303.15 K, m1 = 1.262	–	1596.4 ± 1.9	1.228 ± 0.016
303.15 K, m1 = 1.525	–	1617 ± 1.9	–
303.15 K, m1 = 1.827	–	1641 ± 1.9	1.493 ± 0.02
303.15 K, m1 = 2.131	–	1663.8 ± 2	1.654 ± 0.022
303.15 K, m1 = 2.493	–	1686.8 ± 2	–
303.15 K, m1 = 2.584	–	–	1.969 ± 0.026
303.15 K, m1 = 2.793	–	1708.1 ± 2	–
303.15 K, m1 = 3.096	–	–	2.38 ± 0.031
303.15 K, m1 = 3.118	–	1729.1 ± 2	–
303.15 K, m1 = 3.17	–	1736.9 ± 2	–
303.15 K, m1 = 3.329	–	–	2.611 ± 0.034
303.15 K, m1 = 3.501	–	1753.9 ± 2	–
303.15 K, m1 = 3.704	–	–	2.998 ± 0.039
303.15 K, m1 = 3.757	–	1772.5 ± 2	–
303.15 K, m1 = 4.039	–	–	3.462 ± 0.046
303.15 K, m1 = 4.051	–	1783.6 ± 2	–
303.15 K, m1 = 4.285	–	1797.4 ± 2.1	–
303.15 K, m1 = 4.403	–	1804.5 ± 2.1	–
303.15 K, m1 = 4.728	–	–	4.73 ± 0.062
303.15 K, m1 = 4.883	–	1830.6 ± 2.1	–
303.15 K, m1 = 4.907	–	–	5.225 ± 0.069
303.15 K, m1 = 4.97	1388.7 ± 0.9	–	–
303.15 K, m1 = 5.134	–	1842.9 ± 2.1	–
303.15 K, m1 = 5.282	–	–	6.141 ± 0.081
303.25 K, m1 = 0.0528	1001.1 ± 0.7	–	–
303.3 K, m1 = 3.704	1309.8 ± 0.9	–	–
303.5 K, m1 = 1.525	1141.2 ± 0.8	–	–
303.5 K, m1 = 4.403	1353.9 ± 0.9	–	–
303.55 K, m1 = 1.262	1118.2 ± 0.7	–	–
303.85 K, m1 = 0.5931	1055.1 ± 0.8	–	–
303.9 K, m1 = 0.896	1084.7 ± 0.7	–	–
304.15 K, m1 = 0.6173	1057.7 ± 0.7	–	–
304.25 K, m1 = 3.096	1267.7 ± 0.9	–	–
304.35 K, m1 = 3.501	1295.8 ± 0.9	–	–
304.35 K, m1 = 3.757	1312.3 ± 0.9	–	–
304.55 K, m1 = 2.131	1193.6 ± 0.8	–	–
304.55 K, m1 = 3.118	1268.5 ± 0.8	–	–
304.55 K, m1 = 4.285	1346.2 ± 0.9	–	–
304.55 K, m1 = 4.728	1374.9 ± 1	–	–
304.8 K, m1 = 4.883	1381.4 ± 1	–	–
305 K, m1 = 0.2491	1021.1 ± 0.7	–	–
305 K, m1 = 1.827	1168.3 ± 0.8	–	–
305.05 K, m1 = 2.493	1221.3 ± 0.8	–	–
305.2 K, m1 = 4.051	1329.4 ± 0.9	–	–
305.25 K, m1 = 4.039	1329.3 ± 0.9	–	–
305.3 K, m1 = 1.694	1155.3 ± 0.8	–	–
305.35 K, m1 = 2.584	1229.4 ± 0.8	–	–
305.5 K, m1 = 2.793	1244.7 ± 0.9	–	–
305.55 K, m1 = 3.704	1308.4 ± 0.9	–	–
305.8 K, m1 = 0.9898	1093 ± 0.8	–	–
305.85 K, m1 = 0.3405	1029.6 ± 0.7	–	–
305.95 K, m1 = 1.525	1139.9 ± 0.8	–	–
